Results as given in US5873359A, “Methods and devices for treating pulmonary vasoconstriction and asthma” (The General Hospital Corporation, priority 1994, dated 1999).

What was measured:
[1] = system: methacholine bronchoconstriction; experiment: NO and terbutaline aerosol during methacholine infusion; format: in vivo, Hartley strain guinea pigs; settings: NO gas before or after inhaled terbutaline
Protocol: Male Hartley strain guinea pigs (300-440g body wt) were anesthetized with α-chloralose (50 mg/kg) and urethane (500 mg/kg) (Drazen et al., J. Appl. Physiol. 48:613-618, 1980). A tracheostomy was performed, and the animals were intubated with a tubing adaptor (ID 1.65 mm) and ventilated with a small animal ventilator (Harvard Apparatus, a division of Ealing Scientific, Natick, Mass.) at 8 ml/kg and 60 breaths/min. A jugular vein was cannulated for intravenous administration of drugs. The chest was opened by bilateral excision of a portion of the ribs anteriorly so that the lungs were exposed to atmospheric pressure (Shore and Drazen, J. Appl. Physiol. 67:2504-2511, 1989). A positive end expiratory pressure of 3-4 cmH2 O was provided.
Guinea pigs were then placed inside a plethysmograph (Amdur and Mead, Am. J. Physiol. 192:363-368, 1958), that was connected to a large reservoir containing copper mesh to maintain the plethysmograph isothermal. Plethysmograph pressure was measured with a differential pressure transducer (Celesco, Canoga Park, Calif.); the opposite side of this transducer was connected to a similar reservoir. Pressure at the airway opening was measured from a side tap in the tracheal canula. Transpulmonary pressure was measured with a differential pressure transducer (Celesco) as the difference between airway opening pressure and the pressure inside the plethysmograph. […]

[2] = system: acute hypoxic pulmonary hypertension; experiment: Inhaled NO in lambs with pulmonary vasoconstriction induced by hypoxia; format: in vivo
Protocol: Five awake lambs were studied during a period of breathing a hypoxic gas mixture to induce acute hypoxic pulmonary hypertension. Three lambs were excluded due to sepsis and heart failure. Hemodynamic monitoring techniques similar to those described above were used. We employed a non-rebreathing circuit containing a 25 liter reservoir bag and the Fi O2 was reduced to 0.06-0.08 to produce a mean PAP near 25 mm Hg at a Pa O2 near 30 mm Hg. Either 40 or 80 ppm NO was then added to the inspired gas mixture. Total gas flows were maintained at 35 l/min to prevent rebreathing due to hyperventilation. The inspired Fi O2 was monitored with n electrode (model 5590, Hudson Co., Temecala, Calif.) and pure CO2 was added to the inspired gas to maintain the end tidal CO2 concentration at 4.5-6%. Measurements of central hemodynamics and gas exchange were obtained at baseline, during hypoxia, and at 3 and 6 minutes of No breathing during hypoxia. Comparisons were performed using paired t-tests.

[3] = hypoxia + 40-80 ppm NO, FiO2 0.06-0.08, n = 5, mean ± S.E.
[4] = hypoxia + 40-80 ppm NO, n = 5, mean ± S.E.
[5] = hypoxia + 40-80 ppm NO, n = 5, mean ± S.E., p < .01 vs hypoxia

[N]=O [NO, nitric oxide]
bronchodilating effects of NO plus terbutaline [1]: additive
Pa O2 during hypoxia with vs without NO ([2]; 40 or 80 ppm NO): similar
Pv O2 during hypoxia with vs without NO ([2]; 40 or 80 ppm NO): similar
drop of mean PVR ([2]; 40 or 80 ppm NO): 33%
pulmonary artery pressure ([2]; 40 or 80 ppm NO): returned to control levels
Pa CO2 [2, 3]: 40.0 ± 2.7 mm Hg
PaO2 [2, 3]: 31.1 ± 1.7 mm Hg
Pv O2 [2, 3]: 19.8 ± 3.2 mm Hg
pHa [2, 3]: 7.40 ± 0.03
CO [2, 4]: 7.56 ± 0.79 L/min
CVP [2, 4]: 2.8 ± 1.6 mm Hg
LAP [2, 4]: 4.2 ± 1.0 mm Hg
SVR [2, 4]: 13.7 ± 1.0 mm Hg/l/min
PAP [2, 5]: 18.7 ± 1.1 mm Hg
PVR [2, 5]: 2.01 ± 0.35 mm Hg/l/min
SAP [2, 5]: 106 ± 5 mm Hg
